In article PMC4980837 (Archiv der Pharmazie, 2013):
Like-named read-outs stand apart in the source and are kept apart here. One block for each compound: values may come before it.

Legend:
recombinant human PDE5 = recombinant human PDE5 (Homo sapiens, UniProt O76074); test: PDE5 inhibition, IMAP FP phosphodiesterase assay; assay type: biochemical; conditions: for inhibition at 10 µM: read-out: PDE5 % inhibition at 10 μm
PDE3A = PDE3A (Homo sapiens, UniProt Q14432); test: PDE selectivity array, PDE3A with cGMP as substrate; conditions: for inhibition of cGMP hydrolysis by PDE3A (in words): at concentrations up to 50 μM
PDE11A = PDE11A (Homo sapiens, UniProt Q9HCR9); test: PDE selectivity array, PDE11A with cGMP and cAMP as substrates; conditions: for IC50: 10 concentrations, double replicates
PDE10A = PDE10A (Homo sapiens, UniProt Q9Y233); test: PDE selectivity array, PDE10A with cGMP as substrate; conditions: for inhibition of cGMP hydrolysis by PDE10A (in words): at concentrations up to 50 μM
PDE1A = PDE1A (Homo sapiens, UniProt P54750); test: PDE selectivity array, PDE1A with cGMP as substrate; conditions: for inhibition of cGMP hydrolysis by PDE1A (in words): at concentrations up to 50 μM
PDE2A = PDE2A (Homo sapiens, UniProt O00408); test: PDE selectivity array, PDE2A with cGMP as substrate; conditions: for inhibition of cGMP hydrolysis by PDE2A (in words): at concentrations up to 50 μM
PDE9A = PDE9A (Homo sapiens, UniProt O76083); test: PDE selectivity array, PDE9A with cGMP as substrate; conditions: for inhibition of cGMP hydrolysis by PDE9A (in words): at concentrations up to 50 μM
[1] = IC50 PDE11A cAMP, substrate cAMP
[2] = IC50 PDE11A cGMP, substrate cGMP

Sequence of PDE3A (Q14432 whole entry, species assumed): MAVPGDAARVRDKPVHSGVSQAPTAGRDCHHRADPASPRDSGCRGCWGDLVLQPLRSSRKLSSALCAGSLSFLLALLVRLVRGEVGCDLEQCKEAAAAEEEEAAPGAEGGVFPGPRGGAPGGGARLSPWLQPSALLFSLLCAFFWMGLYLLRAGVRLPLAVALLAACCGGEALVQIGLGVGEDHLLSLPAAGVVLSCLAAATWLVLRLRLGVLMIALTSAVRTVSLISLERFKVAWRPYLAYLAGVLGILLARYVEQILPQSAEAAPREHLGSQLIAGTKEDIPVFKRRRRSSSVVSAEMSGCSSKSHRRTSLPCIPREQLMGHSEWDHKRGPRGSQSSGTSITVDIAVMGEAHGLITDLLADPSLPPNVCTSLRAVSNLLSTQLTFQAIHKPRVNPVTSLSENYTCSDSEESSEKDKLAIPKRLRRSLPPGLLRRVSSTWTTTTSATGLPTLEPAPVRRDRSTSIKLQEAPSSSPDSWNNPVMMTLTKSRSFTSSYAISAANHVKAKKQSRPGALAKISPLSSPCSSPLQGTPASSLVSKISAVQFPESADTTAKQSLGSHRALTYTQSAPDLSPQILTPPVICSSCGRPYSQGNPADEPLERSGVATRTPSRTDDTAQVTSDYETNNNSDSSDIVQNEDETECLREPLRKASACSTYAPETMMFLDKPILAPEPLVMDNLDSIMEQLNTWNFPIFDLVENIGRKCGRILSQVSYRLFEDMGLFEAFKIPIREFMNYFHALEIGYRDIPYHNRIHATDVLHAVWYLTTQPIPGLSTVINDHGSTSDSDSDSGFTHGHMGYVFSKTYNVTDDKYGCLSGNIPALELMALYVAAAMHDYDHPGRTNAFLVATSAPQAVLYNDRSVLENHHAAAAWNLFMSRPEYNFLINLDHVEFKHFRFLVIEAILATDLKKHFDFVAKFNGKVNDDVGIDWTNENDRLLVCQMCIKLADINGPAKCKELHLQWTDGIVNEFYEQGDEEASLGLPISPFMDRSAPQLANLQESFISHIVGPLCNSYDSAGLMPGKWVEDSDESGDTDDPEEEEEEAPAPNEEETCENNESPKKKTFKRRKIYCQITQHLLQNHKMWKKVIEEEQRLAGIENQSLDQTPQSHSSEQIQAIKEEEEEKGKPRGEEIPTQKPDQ
Sequence of PDE10A (Q9Y233 whole entry, species assumed): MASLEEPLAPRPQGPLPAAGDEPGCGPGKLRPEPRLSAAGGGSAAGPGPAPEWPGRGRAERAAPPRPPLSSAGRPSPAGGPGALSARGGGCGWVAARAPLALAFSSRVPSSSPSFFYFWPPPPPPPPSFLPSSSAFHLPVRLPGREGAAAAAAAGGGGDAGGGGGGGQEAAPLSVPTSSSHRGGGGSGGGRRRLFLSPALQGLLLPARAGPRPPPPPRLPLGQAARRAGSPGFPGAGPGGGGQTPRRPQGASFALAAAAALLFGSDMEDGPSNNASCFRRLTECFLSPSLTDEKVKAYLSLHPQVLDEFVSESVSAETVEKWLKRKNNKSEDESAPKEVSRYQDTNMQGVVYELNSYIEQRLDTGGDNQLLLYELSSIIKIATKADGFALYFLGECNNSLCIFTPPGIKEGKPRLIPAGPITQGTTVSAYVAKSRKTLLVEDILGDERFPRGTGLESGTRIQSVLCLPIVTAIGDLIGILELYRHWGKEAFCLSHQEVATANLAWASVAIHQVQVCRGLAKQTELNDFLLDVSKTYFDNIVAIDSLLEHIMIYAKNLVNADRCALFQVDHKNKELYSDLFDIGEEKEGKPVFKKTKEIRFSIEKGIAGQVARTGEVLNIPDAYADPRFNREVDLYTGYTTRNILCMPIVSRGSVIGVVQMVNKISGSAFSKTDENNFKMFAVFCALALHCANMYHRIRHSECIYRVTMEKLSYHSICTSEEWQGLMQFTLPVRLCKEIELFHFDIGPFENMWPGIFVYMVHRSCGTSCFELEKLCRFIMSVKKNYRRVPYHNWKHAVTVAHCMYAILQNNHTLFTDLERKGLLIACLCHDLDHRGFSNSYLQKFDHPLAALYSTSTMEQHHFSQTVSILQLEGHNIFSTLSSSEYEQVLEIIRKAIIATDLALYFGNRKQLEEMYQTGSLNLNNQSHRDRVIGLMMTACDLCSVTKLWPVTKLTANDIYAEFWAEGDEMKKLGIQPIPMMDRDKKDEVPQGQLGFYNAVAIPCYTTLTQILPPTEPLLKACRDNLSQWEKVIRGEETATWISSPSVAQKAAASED
Sequence of PDE2A (O00408 whole entry, species assumed): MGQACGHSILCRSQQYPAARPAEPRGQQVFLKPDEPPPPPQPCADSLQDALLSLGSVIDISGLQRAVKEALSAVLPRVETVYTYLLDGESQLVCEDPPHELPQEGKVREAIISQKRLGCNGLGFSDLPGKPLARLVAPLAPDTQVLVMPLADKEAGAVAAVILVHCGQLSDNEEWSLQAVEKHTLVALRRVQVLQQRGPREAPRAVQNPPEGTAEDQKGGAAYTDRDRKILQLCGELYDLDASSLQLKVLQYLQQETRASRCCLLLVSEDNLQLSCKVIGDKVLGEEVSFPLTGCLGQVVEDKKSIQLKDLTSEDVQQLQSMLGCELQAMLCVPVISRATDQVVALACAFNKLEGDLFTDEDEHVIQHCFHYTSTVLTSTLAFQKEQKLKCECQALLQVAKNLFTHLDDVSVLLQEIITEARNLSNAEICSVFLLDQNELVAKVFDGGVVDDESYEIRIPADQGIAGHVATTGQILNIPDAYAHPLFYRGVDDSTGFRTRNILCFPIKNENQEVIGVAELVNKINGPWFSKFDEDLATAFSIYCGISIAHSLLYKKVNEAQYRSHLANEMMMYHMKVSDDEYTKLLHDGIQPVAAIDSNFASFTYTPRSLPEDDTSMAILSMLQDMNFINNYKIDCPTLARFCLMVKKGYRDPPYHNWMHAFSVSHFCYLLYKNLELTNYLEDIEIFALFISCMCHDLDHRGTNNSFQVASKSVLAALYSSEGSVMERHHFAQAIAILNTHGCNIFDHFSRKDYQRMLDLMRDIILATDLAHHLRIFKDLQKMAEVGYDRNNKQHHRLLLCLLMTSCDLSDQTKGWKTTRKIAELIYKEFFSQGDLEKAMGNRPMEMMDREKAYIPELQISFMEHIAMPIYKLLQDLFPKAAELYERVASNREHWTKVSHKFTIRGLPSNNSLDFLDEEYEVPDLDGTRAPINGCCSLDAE
Sequence of PDE11A (Q9HCR9 whole entry, species assumed): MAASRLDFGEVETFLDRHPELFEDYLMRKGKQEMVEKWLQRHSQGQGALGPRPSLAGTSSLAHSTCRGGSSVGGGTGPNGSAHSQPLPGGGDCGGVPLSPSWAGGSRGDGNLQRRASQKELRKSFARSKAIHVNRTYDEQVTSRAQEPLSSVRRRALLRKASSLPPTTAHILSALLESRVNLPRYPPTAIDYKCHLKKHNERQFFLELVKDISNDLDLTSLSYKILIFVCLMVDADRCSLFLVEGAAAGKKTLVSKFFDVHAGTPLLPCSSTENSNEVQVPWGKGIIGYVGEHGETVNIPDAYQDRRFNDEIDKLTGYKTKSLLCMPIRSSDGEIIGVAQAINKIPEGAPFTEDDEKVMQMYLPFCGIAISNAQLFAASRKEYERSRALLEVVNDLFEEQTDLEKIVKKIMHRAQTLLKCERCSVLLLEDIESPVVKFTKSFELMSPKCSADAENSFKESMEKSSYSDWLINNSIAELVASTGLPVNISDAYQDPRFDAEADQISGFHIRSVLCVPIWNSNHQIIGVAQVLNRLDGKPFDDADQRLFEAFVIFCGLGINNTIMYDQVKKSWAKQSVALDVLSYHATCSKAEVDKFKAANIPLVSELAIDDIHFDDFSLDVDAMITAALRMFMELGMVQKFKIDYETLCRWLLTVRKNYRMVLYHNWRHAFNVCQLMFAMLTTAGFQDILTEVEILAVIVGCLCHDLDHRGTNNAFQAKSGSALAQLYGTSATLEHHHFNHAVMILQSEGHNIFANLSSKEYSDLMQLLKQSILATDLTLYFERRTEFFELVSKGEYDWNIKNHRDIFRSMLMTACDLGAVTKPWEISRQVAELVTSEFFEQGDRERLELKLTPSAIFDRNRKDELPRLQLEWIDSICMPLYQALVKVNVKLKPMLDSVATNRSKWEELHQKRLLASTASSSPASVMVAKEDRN
Sequence of PDE9A (O76083 whole entry, species assumed): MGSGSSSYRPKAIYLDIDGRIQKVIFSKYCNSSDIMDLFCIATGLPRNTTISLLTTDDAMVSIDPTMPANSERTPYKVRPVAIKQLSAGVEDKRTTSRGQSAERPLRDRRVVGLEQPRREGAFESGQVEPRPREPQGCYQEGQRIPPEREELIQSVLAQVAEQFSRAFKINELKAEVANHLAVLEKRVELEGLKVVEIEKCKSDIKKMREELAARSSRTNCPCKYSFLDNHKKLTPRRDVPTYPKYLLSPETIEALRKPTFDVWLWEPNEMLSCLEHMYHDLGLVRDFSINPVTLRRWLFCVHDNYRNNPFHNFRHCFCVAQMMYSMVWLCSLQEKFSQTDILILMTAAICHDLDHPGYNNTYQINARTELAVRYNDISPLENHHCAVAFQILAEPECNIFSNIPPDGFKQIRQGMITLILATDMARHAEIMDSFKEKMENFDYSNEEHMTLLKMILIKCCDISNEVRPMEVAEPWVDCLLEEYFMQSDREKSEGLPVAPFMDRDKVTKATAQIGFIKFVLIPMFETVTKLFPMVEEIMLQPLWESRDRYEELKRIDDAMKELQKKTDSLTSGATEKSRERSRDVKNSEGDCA

IC50 (recombinant human PDE5): 1 µM
Compound: CC(C)(C)N1C(=O)[C@@H]2Cc3c([nH]c4ccccc34)[C@@H](c3ccc(Br)s3)N2C1=O [Compound 16, (5S,11aS) 5-(5-Bromo-2-thienyl)-2-tert-butyl-5,6,11,11a-tetrahydro-1H-imidazo[1′,5 ′:1,6]pyrido[3,4-b]indole-1,3(2H)-dione]

IC50 (recombinant human PDE5): 0.29 µM
Compound: C=CCN1C(=O)[C@H]2Cc3c([nH]c4ccccc34)[C@@H](c3ccc(Br)s3)N2C1=O [Compound 17, (5S,11aR) 5-(5-Bromo-2-thienyl)-2-allyl-5,6,11,11a-tetrahydro-1H-imidazo[1′,5 ′:1,6]pyrido[3,4-b]indole-1,3(2H)-dione]

IC50 (recombinant human PDE5): 5.4 µM
Compound: C=CCN1C(=O)[C@H]2Cc3c([nH]c4ccccc34)[C@H](c3ccc(Br)s3)N2C1=O [Compound 18, (5R,11aR) 5-(5-Bromo-2-thienyl)-2-allyl-5,6,11,11a-tetrahydro-1H-imidazo[1′,5 ′:1,6]pyrido[3,4-b]indole-1,3(2H)-dione]

inhibition at 10 µM (recombinant human PDE5): < 60%
Compound: C=CCN1C(=O)[C@@H]2Cc3c([nH]c4ccccc34)[C@H](c3ccc(Br)s3)N2C1=O [Compound 19, (5R,11aS) 5-(5-Bromo-2-thienyl)-2-allyl-5,6,11,11a-tetrahydro-1H-imidazo[1′,5 ′:1,6]pyrido[3,4-b]indole-1,3(2H)-dione]

IC50 (recombinant human PDE5): 0.32 µM | inhibition at 10 µM (recombinant human PDE5): 97%
Compound: C=CCN1C(=O)[C@@H]2Cc3c([nH]c4ccccc34)[C@@H](c3ccc(Br)s3)N2C1=O [Compound 20, (5S,11aS) 5-(5-Bromo-2-thienyl)-2-allyl-5,6,11,11a-tetrahydro-1H-imidazo[1′,5 ′:1,6]pyrido[3,4-b]indole-1,3(2H)-dione]

IC50 (recombinant human PDE5): 1.71 µM | inhibition at 10 µM (recombinant human PDE5): 81%
Compound: CCN1CC(=O)N2[C@H](c3ccc(Br)s3)c3[nH]c4ccccc4c3C[C@@H]2C1=O [Compound 23, (6S,12aR) 6-(5-Bromo-2-thienyl)-2-ethyl-2,3,6,7,12,12a-hexahydropyrazino[1′,2 ′:1,6]pyrido[3,4-b]indole-1,4-dione]

IC50 (recombinant human PDE5): 1 µM | inhibition at 10 µM (recombinant human PDE5): 87%
Compound: CCN1CC(=O)N2[C@H](c3ccc(Br)s3)c3[nH]c4ccccc4c3C[C@H]2C1=O [Compound 24, (6S,12aS) 6-(5-Bromo-2-thienyl)-2-ethyl-2,3,6,7,12,12a-hexahydropyrazino[1′,2 ′:1,6]pyrido[3,4-b]indole-1,4-dione]

PDE5 inhibition (in words) (recombinant human PDE5; SAR statement in text): no PDE5 inhibition | inhibition at 10 µM (recombinant human PDE5): < 60%
Compound: COC(=O)c1cc2c([nH]c3ccccc32)c(-c2ccc(Br)s2)n1 [Compound 25, Methyl 1-(5-bromo-2-thienyl)-β-carboline-3-carboxylate]

IC50 (PDE3A): > 50 µM | IC50 (PDE10A): > 50 µM | IC50 (PDE1A): > 50 µM | IC50 (PDE2A): > 50 µM | IC50 (PDE9A): > 50 µM
Compound: CN1CC(=O)N2[C@H](c3ccc4c(c3)OCO4)c3[nH]c4ccccc4c3C[C@@H]2C1=O [Tadalafil, tadalafil, reference compound]
inhibition of cGMP hydrolysis by PDE3A (in words) (PDE3A): lacked the ability to inhibit cGMP hydrolysis | inhibition of cGMP hydrolysis by PDE10A (in words) (PDE10A): lacked the ability to inhibit cGMP hydrolysis | inhibition of cGMP hydrolysis by PDE1A (in words) (PDE1A): lacked the ability to inhibit cGMP hydrolysis | inhibition of cGMP hydrolysis by PDE2A (in words) (PDE2A): lacked the ability to inhibit cGMP hydrolysis | inhibition of cGMP hydrolysis by PDE9A (in words) (PDE9A): lacked the ability to inhibit cGMP hydrolysis

Continued, compound first:

Compound: COC(=O)[C@H]1Cc2c([nH]c3ccccc23)[C@@H](c2ccc(Br)s2)N1 [Compound 1, (1S,3R) Methyl 1-(5-bromo-2-thienyl)-2,3,4,9-tetrahydro-1H-β-carboline-3-carboxylate]
inhibition at 10 µM (recombinant human PDE5): < 60%

Compound: COC(=O)[C@H]1Cc2c([nH]c3ccccc23)[C@H](c2ccc(Br)s2)N1 [Compound 2, (1R,3R) Methyl 1-(5-bromo-2-thienyl)-2,3,4,9-tetrahydro-1H-β-carboline-3-carboxylate]
inhibition at 10 µM (recombinant human PDE5): < 60%

Compound: COC(=O)[C@@H]1Cc2c([nH]c3ccccc23)[C@H](c2ccc(Br)s2)N1 [Compound 3, (1R,3S) Methyl 1-(5-bromo-2-thienyl)-2,3,4,9-tetrahydro-1H-β-carboline-3-carboxylate]
inhibition at 10 µM (recombinant human PDE5): < 60%

Compound: COC(=O)[C@@H]1Cc2c([nH]c3ccccc23)[C@@H](c2ccc(Br)s2)N1 [Compound 4, (1S,3S) Methyl 1-(5-bromo-2-thienyl)-2,3,4,9-tetrahydro-1H-β-carboline-3-carboxylate]
inhibition at 10 µM (recombinant human PDE5): < 60%

Compound: CCN1C(=O)[C@@H]2Cc3c([nH]c4ccccc34)[C@@H](c3ccc(Br)s3)N2C1=O [Compound 8, (5S,11aS) 5-(5-Bromo-2-thienyl)-2-ethyl-5,6,11,11a-tetrahydro-1H-imidazo[1′,5 ′:1,6]pyrido[3,4-b]indole-1,3(2H)-dione]
IC50 (PDE3A): > 50 µM | inhibition of cGMP hydrolysis by PDE3A (in words) (PDE3A): lacked the ability to inhibit cGMP hydrolysis | IC50 (PDE11A; [1]): 11.3 µM | IC50 (PDE11A; [2]): 7.8 µM | IC50 (recombinant human PDE5; read-out: PDE5 inhibition IC50, 10 concentrations, each with double replicates): 0.16 µM | IC50 (PDE10A): > 50 µM | inhibition of cGMP hydrolysis by PDE10A (in words) (PDE10A): lacked the ability to inhibit cGMP hydrolysis | IC50 (PDE1A): > 50 µM | inhibition of cGMP hydrolysis by PDE1A (in words) (PDE1A): lacked the ability to inhibit cGMP hydrolysis | IC50 (PDE2A): > 50 µM | inhibition of cGMP hydrolysis by PDE2A (in words) (PDE2A): lacked the ability to inhibit cGMP hydrolysis | IC50 (PDE9A): > 50 µM | inhibition of cGMP hydrolysis by PDE9A (in words) (PDE9A): lacked the ability to inhibit cGMP hydrolysis

Compound: CCCCN1C(=O)[C@H]2Cc3c([nH]c4ccccc34)[C@@H](c3ccc(Br)s3)N2C1=O [Compound 9, (5S,11aR) 5-(5-Bromo-2-thienyl)-2-butyl-5,6,11,11a-tetrahydro-1H-imidazo[1′,5 ′:1,6]pyrido[3,4-b]indole-1,3(2H)-dione]
IC50 (PDE3A): > 50 µM | inhibition of cGMP hydrolysis by PDE3A (in words) (PDE3A): lacked the ability to inhibit cGMP hydrolysis | IC50 (PDE11A; [1]): 4 µM | IC50 (PDE11A; [2]): 2.3 µM | Selectivity index IC50 (PDE11A/PDE5A) cGMP/cGMP (PDE11A; ratio of IC50 PDE11A to PDE5A, cGMP as substrate): 14 | IC50 (recombinant human PDE5): 0.17 µM | inhibition at 10 µM (recombinant human PDE5): 99% | IC50 (PDE10A): > 50 µM | inhibition of cGMP hydrolysis by PDE10A (in words) (PDE10A): lacked the ability to inhibit cGMP hydrolysis | IC50 (PDE1A): > 50 µM | inhibition of cGMP hydrolysis by PDE1A (in words) (PDE1A): lacked the ability to inhibit cGMP hydrolysis | IC50 (PDE2A): > 50 µM | inhibition of cGMP hydrolysis by PDE2A (in words) (PDE2A): lacked the ability to inhibit cGMP hydrolysis | IC50 (PDE9A): > 50 µM | inhibition of cGMP hydrolysis by PDE9A (in words) (PDE9A): lacked the ability to inhibit cGMP hydrolysis

Compound: CCCCN1C(=O)[C@H]2Cc3c([nH]c4ccccc34)[C@H](c3ccc(Br)s3)N2C1=O [Compound 10, (5R,11aR) 5-(5-Bromo-2-thienyl)-2-butyl-5,6,11,11a-tetrahydro-1H-imidazo[1′,5 ′:1,6]pyrido[3,4-b]indole-1,3(2H)-dione]
inhibition at 10 µM (recombinant human PDE5): < 60%

Compound: CCCCN1C(=O)[C@@H]2Cc3c([nH]c4ccccc34)[C@H](c3ccc(Br)s3)N2C1=O [Compound 11, (5R,11aS) 5-(5-Bromo-2-thienyl)-2-butyl-5,6,11,11a-tetrahydro-1H-imidazo[1′,5 ′:1,6]pyrido[3,4-b]indole-1,3(2H)-dione]
inhibition at 10 µM (recombinant human PDE5): < 60%

Compound: CCCCN1C(=O)[C@@H]2Cc3c([nH]c4ccccc34)[C@@H](c3ccc(Br)s3)N2C1=O [Compound 12, (5S,11aS) 5-(5-Bromo-2-thienyl)-2-butyl-5,6,11,11a-tetrahydro-1H-imidazo[1′,5 ′:1,6]pyrido[3,4-b]indole-1,3(2H)-dione]
IC50 (recombinant human PDE5): 0.47 µM | inhibition at 10 µM (recombinant human PDE5): 92%

Compound: CC(C)(C)N1C(=O)[C@H]2Cc3c([nH]c4ccccc34)[C@@H](c3ccc(Br)s3)N2C1=O [Compound 13, (5S,11aR) 5-(5-Bromo-2-thienyl)-2-tert-butyl-5,6,11,11a-tetrahydro-1H-imidazo[1′,5 ′:1,6]pyrido[3,4-b]indole-1,3(2H)-dione]
IC50 (recombinant human PDE5): 0.39 µM | inhibition at 10 µM (recombinant human PDE5): 97%

Compound: CC(C)(C)N1C(=O)[C@H]2Cc3c([nH]c4ccccc34)[C@H](c3ccc(Br)s3)N2C1=O [Compound 14, (5R,11aR) 5-(5-Bromo-2-thienyl)-2-tert-butyl-5,6,11,11a-tetrahydro-1H-imidazo[1′,5 ′:1,6]pyrido[3,4-b]indole-1,3(2H)-dione]
inhibition at 10 µM (recombinant human PDE5): < 60%

Compound: CC(C)(C)N1C(=O)[C@@H]2Cc3c([nH]c4ccccc34)[C@H](c3ccc(Br)s3)N2C1=O [Compound 15, (5R,11aS) 5-(5-Bromo-2-thienyl)-2-tert-butyl-5,6,11,11a-tetrahydro-1H-imidazo[1′,5 ′:1,6] pyrido[3,4-b]indole-1,3(2H)-dione]
inhibition at 10 µM (recombinant human PDE5): < 60%
